Source: patent US12134610B2, “Somatostatin subtype-2 receptor (SST2R) targeted therapeutics and uses thereof” (priority 2022, dated 2024)
Starred links: 1 amine or outer side, 2 acyl side, 3 side chain; linkers in the order of their positions; H or OH if unused. Non-standard residues stand in square brackets, D forms with d. Residues, ends and D or L forms follow the SMILES beside them. *: point of attachment. X4 = Cc1cc(F)cc(-c2cnc(NCCNC(=O)CCOCCOCCOCCOCCC(=O)*)c(-c3nc4ccc(Cl)cc4[nH]3)c2N2CCC(N)CC2)c1; X1 = Cc1cc(F)cc(-c2cnc(NCCNC(=O)CCOCCC(=O)*)c(-c3nc4ccc(Cl)cc4[nH]3)c2N2CCC(N)CC2)c1; Dolaproine = CO[C@@H]([C@@H]1CCCN1)[C@@H](C)C(=O)O; Dil = CC[C@H](C)[C@H](NC)[C@@H](CC(=O)O)OC; PABC = O=C(OCc1ccc(N[*:1])cc1)[*:2]; X2 = C[C@@H](N*)[C@@H](O)c1ccccc1; Cya = N[C@@H](CS(=O)(=O)O)C(=O)O; Cit = NC(=O)NCCC[C@H](N)C(=O)O; NMeV = CN[C@H](C(=O)O)C(C)C

Legend:
Type in all cases: cell-based
[1] = target: T1, human somatostatin receptor subtype 2 (Homo sapiens, UniProt P30874); test: Functional cAMP assay for SSTR2 agonists (HTRF) in CHO-K1 cells; conditions: CHO-K1 cells stably expressing human SST2, 20 min; read-out: hSST2 cAMP Avg EC50
T1 construct: expressed in transfected cells
Summary of the method: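 Agonism scored as loss of NKH477 (1.6 μM)-driven cAMP, with IBMX present, after 20 min, 37° C. exposure of stably transfected CHO-K1 cells to compound dilutions (typically 0-10,000 nM). Lysates read by time-resolved FRET; cAMP interpolated from standard curve and EC50 derived.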

[2] = system: NCI-H524 (ATCC) human small cell lung cancer cells; conditions: 2 h
Summary of the method: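 CellTiter-Glo luminescence after a 2 h SMDC pulse (top dose 1 uM, 2-fold dilutions, 11 points), medium wash, then 70 h recovery. Cells were seeded at 5,000/well and dosed 24 h later. % inhibition vs control gave IC50 via four-parameter fit.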

SST2 = target: T2, SST2 (Homo sapiens, UniProt P30874); test: PathHunter CHO-K1 SST2 internalization assay; conditions: PathHunter CHO-K1 SST2, 90 min; read-out: Internalization EC50
T2 construct: host or cells: PathHunter CHO-K1 SST2 cells
Summary of the method: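 IC50 comes from four-parameter curves on background-corrected duplicates of Beta-Glo luminescence, read after 60 min at room temperature in the dark. Before that, CHO-K1 SST2 internalization cells (48 h post-seeding) received SMDC as eleven threefold dilutions, 10 uM highest final, for 90 min at 37 C.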

T1 sequence (P30874 whole entry): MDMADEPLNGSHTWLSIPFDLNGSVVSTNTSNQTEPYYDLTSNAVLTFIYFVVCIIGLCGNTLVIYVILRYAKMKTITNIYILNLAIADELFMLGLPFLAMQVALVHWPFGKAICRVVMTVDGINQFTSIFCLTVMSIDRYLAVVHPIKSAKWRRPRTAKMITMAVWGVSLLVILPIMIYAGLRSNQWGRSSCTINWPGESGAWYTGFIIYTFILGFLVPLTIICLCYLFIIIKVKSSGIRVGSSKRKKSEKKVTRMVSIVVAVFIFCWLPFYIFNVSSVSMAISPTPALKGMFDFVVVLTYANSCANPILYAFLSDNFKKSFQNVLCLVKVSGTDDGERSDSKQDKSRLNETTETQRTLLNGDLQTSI
T2 sequence (P30874 whole entry): as above

SMILES	EC50 [1] [nM]	EC50 [2] [nM]	EC50 (SST2) [nM]
CC[C@H](C)[C@@H]([C@@H](CC(=O)N1CCC[C@H]1[C@H](OC)[C@@H](C)C(=O)N[C@H](C)[C@@H](O)c1ccccc1)OC)N(C)C(=O)[C@@H](NC(=O)[C@H](C(C)C)N(C)C(=O)OCc1ccc(NC(=O)[C@H](CCCNC(N)=O)NC(=O)[C@@H](NC(=O)[C@H](CS(=O)(=O)O)NC(=O)[C@@H](CCC(=O)O)NC(=O)CCOCCC(=O)NCCNc2ncc(-c3cc(C)cc(F)c3)c(N3CCC(N)CC3)c2-c2nc3ccc(Cl)cc3[nH]2)C(C)C)cc1)C(C)C [Compound 106] (X1-[dE][Cya]V[Cit][PABC][NMeV]V[Dil][Dolaproine]-X2)	0.25	460	16
CC[C@H](C)[C@@H]([C@@H](CC(=O)N1CCC[C@H]1[C@H](OC)[C@@H](C)C(=O)N[C@H](C)[C@@H](O)c1ccccc1)OC)N(C)C(=O)[C@@H](NC(=O)[C@H](C(C)C)N(C)C(=O)OCc1ccc(NC(=O)[C@H](CCCNC(N)=O)NC(=O)[C@@H](NC(=O)[C@H](CC(=O)O)NC(=O)[C@H](CC(=O)O)NC(=O)[C@H](CC(=O)O)NC(=O)CCOCCC(=O)NCCNc2ncc(-c3cc(C)cc(F)c3)c(N3CCC(N)CC3)c2-c2nc3ccc(Cl)cc3[nH]2)C(C)C)cc1)C(C)C [Compound 108] (X1-DDDV[Cit][PABC][NMeV]V[Dil][Dolaproine]-X2)	1.9	3300	53
CC[C@H](C)[C@@H]([C@@H](CC(=O)N1CCC[C@H]1[C@H](OC)[C@@H](C)C(=O)N[C@H](C)[C@@H](O)c1ccccc1)OC)N(C)C(=O)[C@@H](NC(=O)[C@H](C(C)C)N(C)C(=O)OCc1ccc(NC(=O)[C@H](CCCNC(N)=O)NC(=O)[C@@H](NC(=O)[C@@H](CC(=O)O)NC(=O)[C@@H](CC(=O)O)NC(=O)[C@@H](CC(=O)O)NC(=O)CCOCCC(=O)NCCNc2ncc(-c3cc(C)cc(F)c3)c(N3CCC(N)CC3)c2-c2nc3ccc(Cl)cc3[nH]2)C(C)C)cc1)C(C)C [Compound 109] (X1-[dD][dD][dD]V[Cit][PABC][NMeV]V[Dil][Dolaproine]-X2)	0.7	2500	11
CC[C@H](C)[C@@H]([C@@H](CC(=O)N1CCC[C@H]1[C@H](OC)[C@@H](C)C(=O)N[C@H](C)[C@@H](O)c1ccccc1)OC)N(C)C(=O)[C@@H](NC(=O)[C@H](C(C)C)N(C)C(=O)OCc1ccc(NC(=O)[C@H](CCCNC(N)=O)NC(=O)[C@@H](NC(=O)[C@H](CCC(=O)O)NC(=O)[C@H](CCC(=O)O)NC(=O)CCOCCOCCOCCOCCC(=O)NCCNc2ncc(-c3cc(C)cc(F)c3)c(N3CCC(N)CC3)c2-c2nc3ccc(Cl)cc3[nH]2)C(C)C)cc1)C(C)C [Compound 110] (X4-EEV[Cit][PABC][NMeV]V[Dil][Dolaproine]-X2)	0.57	110	13
CC[C@H](C)[C@@H]([C@@H](CC(=O)N1CCC[C@H]1[C@H](OC)[C@@H](C)C(=O)N[C@H](C)[C@@H](O)c1ccccc1)OC)N(C)C(=O)[C@@H](NC(=O)[C@H](C(C)C)N(C)C(=O)OCc1ccc(NC(=O)[C@H](CCCNC(N)=O)NC(=O)[C@@H](NC(=O)CNC(=O)[C@H](CCC(=O)O)NC(=O)[C@H](CCC(=O)O)NC(=O)CCOCCC(=O)NCCNc2ncc(-c3cc(C)cc(F)c3)c(N3CCC(N)CC3)c2-c2nc3ccc(Cl)cc3[nH]2)C(C)C)cc1)C(C)C [Compound 111] (X1-EEGV[Cit][PABC][NMeV]V[Dil][Dolaproine]-X2)	1.2	360	22
CC[C@H](C)[C@@H]([C@@H](CC(=O)N1CCC[C@H]1[C@H](OC)[C@@H](C)C(=O)N[C@H](C)[C@@H](O)c1ccccc1)OC)N(C)C(=O)[C@@H](NC(=O)[C@H](C(C)C)N(C)C(=O)OCc1ccc(NC(=O)[C@H](CCCNC(N)=O)NC(=O)[C@@H](NC(=O)[C@H](CCC(N)=O)NC(=O)CCOCCC(=O)NCCNc2ncc(-c3cc(C)cc(F)c3)c(N3CCC(N)CC3)c2-c2nc3ccc(Cl)cc3[nH]2)C(C)C)cc1C(N)=O)C(C)C [Compound 112]	0.16	10	2.9
CC[C@H](C)[C@@H]([C@@H](CC(=O)N1CCC[C@H]1[C@H](OC)[C@@H](C)C(=O)N[C@H](C)[C@@H](O)c1ccccc1)OC)N(C)C(=O)[C@@H](NC(=O)[C@H](C(C)C)N(C)C(=O)OCc1ccc(NC(=O)[C@H](CCCNC(N)=O)NC(=O)[C@@H](NC(=O)[C@H](CCC(=O)O)NC(=O)[C@H](CS(=O)(=O)O)NC(=O)CCOCCC(=O)NCCNc2ncc(-c3cc(C)cc(F)c3)c(N3CCC(N)CC3)c2-c2nc3ccc(Cl)cc3[nH]2)C(C)C)cc1)C(C)C [Compound 113] (X1-[Cya]EV[Cit][PABC][NMeV]V[Dil][Dolaproine]-X2)	0.33	200	30
CC[C@H](C)[C@@H]([C@@H](CC(=O)N1CCC[C@H]1[C@H](OC)[C@@H](C)C(=O)N[C@H](C)[C@@H](O)c1ccccc1)OC)N(C)C(=O)[C@@H](NC(=O)[C@H](C(C)C)N(C)C(=O)OCc1ccc(NC(=O)[C@H](CCCNC(N)=O)NC(=O)[C@@H](NC(=O)[C@H](CS(=O)(=O)O)NC(=O)[C@H](CCC(=O)O)NC(=O)CCOCCOCCOCCOCCC(=O)NCCNc2ncc(-c3cc(C)cc(F)c3)c(N3CCC(N)CC3)c2-c2nc3ccc(Cl)cc3[nH]2)C(C)C)cc1)C(C)C [Compound 114] (X4-E[Cya]V[Cit][PABC][NMeV]V[Dil][Dolaproine]-X2)	0.22	100	10
CC[C@H](C)[C@@H]([C@@H](CC(=O)N1CCC[C@H]1[C@H](OC)[C@@H](C)C(=O)N[C@H](C)[C@@H](O)c1ccccc1)OC)N(C)C(=O)[C@@H](NC(=O)[C@H](C(C)C)N(C)C(=O)OCc1ccc(NC(=O)[C@H](C)NC(=O)[C@@H](NC(=O)[C@H](CCC(=O)O)NC(=O)CCOCCC(=O)NCCNc2ncc(-c3cc(C)cc(F)c3)c(N3CCC(N)CC3)c2-c2nc3ccc(Cl)cc3[nH]2)C(C)C)cc1C(=O)NCCN)C(C)C [Compound 116]	0.1	6.6	3.9
CC[C@H](C)[C@@H]([C@@H](CC(=O)N1CCC[C@H]1[C@H](OC)[C@@H](C)C(=O)N[C@H](C)[C@@H](O)c1ccccc1)OC)N(C)C(=O)[C@@H](NC(=O)[C@H](C(C)C)N(C)C(=O)OCc1ccc(NC(=O)[C@H](C)NC(=O)[C@@H](NC(=O)[C@H](CS(=O)(=O)O)NC(=O)CCOCCC(=O)NCCNc2ncc(-c3cc(C)cc(F)c3)c(N3CCC(N)CC3)c2-c2nc3ccc(Cl)cc3[nH]2)C(C)C)cc1C(=O)NCCN)C(C)C [Compound 117]	0.081	3.7	2.6
CC[C@H](C)[C@@H]([C@@H](CC(=O)N1CCC[C@H]1[C@H](OC)[C@@H](C)C(=O)N[C@H](C)[C@@H](O)c1ccccc1)OC)N(C)C(=O)[C@@H](NC(=O)[C@H](C(C)C)N(C)C(=O)OCc1ccc(NC(=O)[C@H](C)NC(=O)[C@@H](NC(=O)[C@H](CCC(N)=O)NC(=O)CCOCCC(=O)NCCNc2ncc(-c3cc(C)cc(F)c3)c(N3CCC(N)CC3)c2-c2nc3ccc(Cl)cc3[nH]2)C(C)C)cc1C(=O)NCCN)C(C)C [Compound 118]	0.068	0.65	3.8
CC[C@H](C)[C@@H]([C@@H](CC(=O)N1CCC[C@H]1[C@H](OC)[C@@H](C)C(=O)N[C@H](C)[C@@H](O)c1ccccc1)OC)N(C)C(=O)[C@@H](NC(=O)[C@H](C(C)C)N(C)C(=O)OCc1ccc(NC(=O)[C@H](CCCNC(N)=O)NC(=O)[C@@H](NC(=O)[C@H](CCC(N)=O)NC(=O)[C@H](CCC(=O)O)NC(=O)CCOCCOCCOCCOCCC(=O)NCCNc2ncc(-c3cc(C)cc(F)c3)c(N3CCC(N)CC3)c2-c2nc3ccc(Cl)cc3[nH]2)C(C)C)cc1)C(C)C [Compound 119] (X4-EQV[Cit][PABC][NMeV]V[Dil][Dolaproine]-X2)	0.14	16	5.4
CC[C@H](C)[C@@H]([C@@H](CC(=O)N1CCC[C@H]1[C@H](OC)[C@@H](C)C(=O)N[C@H](C)[C@@H](O)c1ccccc1)OC)N(C)C(=O)[C@@H](NC(=O)[C@H](C(C)C)N(C)C(=O)OCc1ccc(NC(=O)[C@H](C)NC(=O)[C@@H](NC(=O)[C@H](CCC(=O)O)NC(=O)CCCCCC(=O)NCCNc2ncc(-c3cc(C)cc(F)c3)c(N3CCC(N)CC3)c2-c2nc3ccc(Cl)cc3[nH]2)C(C)C)cc1C(=O)NCCN)C(C)C [Compound 120]	0.19	2.4	2.7
CC[C@H](C)[C@@H]([C@@H](CC(=O)N1CCC[C@H]1[C@H](OC)[C@@H](C)C(=O)N[C@H](C)[C@@H](O)c1ccccc1)OC)N(C)C(=O)[C@@H](NC(=O)[C@H](C(C)C)N(C)C(=O)OCc1ccc(NC(=O)[C@H](C)NC(=O)[C@@H](NC(=O)[C@H](CCC(N)=O)NC(=O)CCCCCC(=O)NCCNc2ncc(-c3cc(C)cc(F)c3)c(N3CCC(N)CC3)c2-c2nc3ccc(Cl)cc3[nH]2)C(C)C)cc1C(=O)NCCN)C(C)C [Compound 121]	0.45	0.62	3
CC[C@H](C)[C@@H]([C@@H](CC(=O)N1CCC[C@H]1[C@H](OC)[C@@H](C)C(=O)N[C@H](C)[C@@H](O)c1ccccc1)OC)N(C)C(=O)[C@@H](NC(=O)[C@H](C(C)C)N(C)C(=O)OCc1ccc(NC(=O)[C@H](CCCNC(N)=O)NC(=O)[C@@H](NC(=O)CCOCCC(=O)NCCNc2ncc(-c3cc(C)cc(F)c3)c(N3CCC(N)CC3)c2-c2nc3ccc(Cl)cc3[nH]2)C(C)C)cc1C(N)=O)C(C)C [Compound 122]	0.18	7.9	3.8
